Experimental data as given in patent US20150087649A1, “TREATING DISORDERS ASSOCIATED WITH ABERRANT ADRENOCORTICAL CELL BEHAVIOR” (Atterocor, Inc., priority 2013, published 2015).
Read-outs that look alike come from different tables or passages of the source.

Experiments:
human ACAT2 = biological target: T1, human ACAT2 (Homo sapiens, UniProt O75908); test: Fluorescent NBD-cholesterol esterification assay in AC29 stable transfectants, Table 2; assay type: cell-based
T1 sequence (O75908 1-522): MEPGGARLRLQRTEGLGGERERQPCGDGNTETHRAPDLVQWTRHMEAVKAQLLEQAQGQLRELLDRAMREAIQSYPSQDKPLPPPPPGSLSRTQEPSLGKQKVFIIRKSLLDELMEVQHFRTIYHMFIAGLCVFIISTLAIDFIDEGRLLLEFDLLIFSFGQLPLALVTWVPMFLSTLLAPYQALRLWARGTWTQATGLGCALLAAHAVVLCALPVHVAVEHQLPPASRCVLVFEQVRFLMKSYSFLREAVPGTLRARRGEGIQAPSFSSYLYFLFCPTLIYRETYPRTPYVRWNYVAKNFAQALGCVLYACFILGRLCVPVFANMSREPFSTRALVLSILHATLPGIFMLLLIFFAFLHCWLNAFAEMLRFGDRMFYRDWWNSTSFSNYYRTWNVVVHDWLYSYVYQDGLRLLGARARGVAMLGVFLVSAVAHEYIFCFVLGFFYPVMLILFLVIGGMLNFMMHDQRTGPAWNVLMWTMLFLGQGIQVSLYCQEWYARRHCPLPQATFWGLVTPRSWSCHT
Method: [The procedure below names another target; the source lists this target under the same test.] (§1) Cells were maintained in monolayer at 37° C. in 5% CO2 in Ham's F-12 medium supplemented with 1% Eagle's vitamins, penicillin (100 units/ml), streptomycin (100 μg/ml), and 10% heat-inactivated fetal bovine serum, and cells were typically grown to 70-90% confluence for all experiments.
(§2) Human ACAT1 activity was assessed using a fluorescent cell-based assay as described in Lada et al. (supra). The assay uses 22-[N-(7-nitrobenz-2-oxa-1,3-diazol-4-yl)amino]-23,24-bisnor-5-cholen-3-ol (NBD-cholesterol), a fluorescent sterol analog in which the NBD moiety replaces the terminal segment of the alkyl tail of cholesterol. […] In a polar environment, NBD-cholesterol is weakly fluorescent. In a nonpolar environment, NBD-cholesterol strongly is strongly fluorescent. The fluorescent property of NBD-cholesterol is used to measure ACAT activity, as cholesterol is a polar lipid and cholesteryl ester is nonpolar. 3×10^5 cells per well were plated on Falcon 96-well culture plates and allowed to recover overnight. Assays were performed with cells that are at least 80% confluent. Media was aspirated and wells were pre-incubated with 100 μL of dilutions of control and test compounds from 1000× stock solutions in DMSO (or other neutral diluent e.g., methanol, ethanol, or water) for 20 minutes. Media was removed and replaced with 100 μL of medium containing the same dilution of compound or vehicle as in the pre-incubation and 1 μg/ml NBD-cholesterol and incubated for 6 hr at 37° C. (Lada et al., supra). […] Parental AC29 cells incubated with NBD-cholesterol or ACAT1-expressing cells incubated with NBD-cholesterol and the […] were used to determine background fluorescence attributable to free NBD-cholesterol. After incubation, medium is removed, and the cells were washed two times with cold balanced salt solution (BSS). […] Cholesteryl ester (CE) fluorescence was calculated by subtracting the background from the total fluorescence, and these values were normalized by cellular protein.

human ACAT1 = biological target: T2, human ACAT1 (Homo sapiens, UniProt P35610, Q526R); test: Fluorescent cell-based assay measuring esterification of NBD-cholesterol in AC29 cells expressing huACAT1
T2 construct: expressed in transfected cells
T2 sequence (P35610 1-550 Q526R): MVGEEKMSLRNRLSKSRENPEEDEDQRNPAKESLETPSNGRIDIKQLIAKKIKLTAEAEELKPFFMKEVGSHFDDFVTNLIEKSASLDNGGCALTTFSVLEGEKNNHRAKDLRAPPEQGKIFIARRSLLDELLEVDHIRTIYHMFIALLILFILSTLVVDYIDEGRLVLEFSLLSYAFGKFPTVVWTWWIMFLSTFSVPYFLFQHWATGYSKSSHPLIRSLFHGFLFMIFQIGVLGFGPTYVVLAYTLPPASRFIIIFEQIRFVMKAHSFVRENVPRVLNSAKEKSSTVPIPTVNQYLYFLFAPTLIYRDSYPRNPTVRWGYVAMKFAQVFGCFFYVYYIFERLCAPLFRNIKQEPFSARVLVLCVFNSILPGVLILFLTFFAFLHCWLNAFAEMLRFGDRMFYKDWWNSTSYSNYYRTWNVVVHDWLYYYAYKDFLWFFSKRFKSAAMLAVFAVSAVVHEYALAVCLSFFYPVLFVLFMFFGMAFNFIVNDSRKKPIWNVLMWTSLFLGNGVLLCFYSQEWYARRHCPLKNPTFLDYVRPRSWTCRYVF
Source text: In the methods described herein, the agent inhibits the ability of huACAT1 to catalyze the esterification of free cholesterol into cholesteryl ester. […] AC29 cells lack endogenous ACAT1 activity and are transfected to express human ACAT1. The assay uses 22-[N-(7-nitrobenz-2-oxa-1,3-diazol-4-yl)amino]-23,24-bisnor-5-cholen-3-ol (NBD-cholesterol), a fluorescent sterol analog in which the NBD moiety replaces the terminal segment of the alkyl tail of cholesterol. […] In a polar environment, NBD-cholesterol is weakly fluorescent. In a nonpolar environment, NBD-cholesterol is strongly fluorescent. The fluorescent property of NBD-cholesterol is used to measure ACAT activity, as cholesterol is a polar lipid and cholesteryl ester is nonpolar. Untransfected AC29 cells or AC29 cells expressing huACAT1 treated with a known ACAT inhibitor can be used to determine background fluorescence due to free-NBD-cholesterol.
as §1, §2

H295R cells [1] = test: XBP-1 splicing (unfolded protein response) in H295R cells with exogenous cholesterol; assay type: cell-based, human; conditions: compound at its ACAT1 IC50 concentration, 45 ug/mL exogenous cholesterol, 5 hours
Method: Treatment of H295R cells by an agent can result in chronic disruption of cholesterol homeostasis that may lead to activation of the UPR and/or triggering of the programmed cell death response and the induction apoptotic markers.
H295R adrenocortical cells are plated at 500,000 cells/well in a 12-well culture plate as described in Example 8. […]. After 5 hours of treatment, RNA is extracted using the Qiagen RNEasy® Plus kit and 1 μg RNA is reverse transcribed using Applied Biosystems® High-Capacity cDNA Reverse Transcription Kit. XBP-1 splicing product is amplified by PCR using primer pairs that allow detection of the activated isoform (5′-[…]-3′ (SEQ ID NO:15) and 5′-[…]-3′ (SEQ ID NO:16)) under the following conditions: 1) 95° C. for 30 sec, 2) 95° C. for 15 sec; 3) 50° C. for 15 sec, 4) 68° C. for 30 sec. […] Amplification steps 2 through 4 are repeated for 30 cycles. PCR product is resolved on a 5% agarose gel. DTT treated cells serve as a positive control for XBP-1 splicing. An increase in the XBP-1 splice variant expression of greater than 20% is considered significant.

H295R = test: Free and esterified cholesterol in H295R cells with exogenous cholesterol; assay type: cell-based, human; conditions: compound at its ACAT1 IC50 concentration, 45 μg/ml cholesterol
Method: In this study, H295R were plated at 200,000 cells/well in a 24 well plate. After overnight incubation at 37° C., media was removed and replaced with treatment media (test compound at its ACAT1 IC50 concentrations containing 45 μg/ml cholesterol) or vehicle (DMSO). After treatment of cells for various lengths of time (minutes to hours), media was removed and cells are washed twice with cold PBS. 200 ul of hexane/isopropanol (3:2) was then added to each well, the plate was rocked at room temperature for 1 hour, and the supernatant was transferred to glass vials and allowed to air dry. Residual lipids were resuspended and total cholesterol and free cholesterol were measured using the Cholesterol Fluorometric Assay Kit (Cayman Chemical). Cholesterol ester was determined by subtracting free cholesterol from total cholesterol.

H295R cells [2] = test: Caspase-3/7 activity (Apotox-Glo) in H295R cells with exogenous cholesterol; assay type: cell-based, human; conditions: compound at its ACAT1 IC50 concentration, 45 ug/mL exogenous cholesterol, 5 hours
Method: Commercially-available assay kits may also be employed to measure Caspase 3/7 activity, including for example the Apotox-Glo Assay Kit (Promega). […] H295R cells are plated at 500,000 cells/well in a 12 well plate. After overnight incubation at 37° C., media is removed and replaced with media containing vehicle (DMSO) or one of the ACAT1 inhibitors at its ACAT1 IC50 concentration in the presence of 45 ug/mL exogenous cholesterol. After 5 hours of treatment, cells are harvested, washed and assayed for Caspase-3/7 activity using the Apotox-Glo Assay Kit (Promega).

adrenocortical cells = conditions: as reported in the literature; cited from earlier work
[3] = test system: adrenocortical carcinoma (ACC); conditions: cited from earlier work
[4] = Table 2, second IC50 column (head repeats huACAT1), AC29 transfectants, NBD-cholesterol, read-out: IC50 huACAT1
[5] = Table 2, first IC50 column, AC29 cells expressing huACAT1, 1 μg/ml NBD-cholesterol, 6 hr, read-out: IC50 huACAT1
[6] = Table 3, determined as described in Example 1, read-out: ACAT1 IC50

CC(C)c1cccc(C(C)C)c1OC(=O)NS(=O)(=O)Oc1c(C(C)C)cccc1C(C)C [Compound 1]
IC50 (human ACAT2): 440 nM
IC50 (human ACAT1): 2400 nM

CCCCCCCCCCCCCOC(=O)C(C(=O)Nc1c(C(C)C)cccc1C(C)C)c1ccccc1 (centres unmarked) [Compound 2]
IC50 (human ACAT2; [4]): 21 nM
IC50 (human ACAT1; [5]): 20 nM

CCCCCCCCCCCCn1nnc(C(C(=O)Nc2c(C(C)C)cccc2C(C)C)c2ccccc2)n1 (centres unmarked) [Compound 3, 2H-Tetrazole-5-acetamide, N-[2,6-bis(1-methylethyl)phenyl]-2-dodecyl-a-phenyl-]
splicing of XBP-1 compared to vehicle (H295R cells [1]): significant splicing of XBP-1
IC50 (human ACAT2; [4]): 510 nM
free cholesterol compared to vehicle (H295R): increase in free cholesterol
Caspase-3/7 activity compared to vehicle (H295R cells [2]): significant increases
Adrenal activity (adrenocortical cells): Adrenal acting
IC50 (human ACAT1; [5]): 2000 nM
IC50 (human ACAT1; [6]): 11 nM

Cc1ccc2oc(CN(Cc3ccccc3)C(=O)Nc3c(F)cc(F)cc3F)c(-c3ccc(Cl)cc3)c2c1 [Compound 5]
splicing of XBP-1 compared to vehicle (H295R cells [1]): significant splicing of XBP-1
IC50 (human ACAT2; [4]): 80 nM
free cholesterol compared to vehicle (H295R): increase in free cholesterol
Caspase-3/7 activity compared to vehicle (H295R cells [2]): significant increases
Adrenal activity (adrenocortical cells): Adrenal acting
IC50 (human ACAT1; [5]): 6 nM
IC50 (human ACAT1; [6]): 10 nM

CCCCC[C@H]1C=C[C@@H](CCCCC)SC1[C@@H](C)Nc1c(SC)cc(C)nc1SC (some centres unmarked) [Compound 6]
IC50 (human ACAT2; [4]): 18 nM
IC50 (human ACAT1; [5]): 1.8 nM

CCCCCCCCC(C)(C)C(=O)Nc1c(OC)cc(OC)cc1OC [Compound 7]
IC50 (human ACAT1; [5]): 540 nM

Clc1ccc(C(c2ccccc2Cl)C(Cl)Cl)cc1 (centres unmarked) [mitotane]
delay of disease progression, average ([3]; ACC patients that derive a therapeutic benefit): five
share of patients with increased progression-free survival ([3]; ACC patients): one-quarter to one-third
